We go through four molecules from patent US20110262508A1, “ANTIMICROBIAL COMPOSITIONS, FORMULATIONS AND USES THEREOF” (priority 2007, published 2011).

Read-outs that look alike come from different tables or passages of the source. Square brackets hold non-standard residues; d marks the D form. Peptide text beside a SMILES is read from it. * marks the point of attachment. Biotin = O=C1N[C@H]2[C@H](CS[C@H]2CCCCC(=O)*)N1

For data set [1], the system named is A. baumannii. The data set is classed as cell-based. An outline of the steps:
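Laboratory strains and 50 clinical isolates of A. baumannii were tested by CLSI broth microdilution, with serially diluted peptide (0.1-64 μg) and about 1×10^5 C.F.U. per well, incubated aerobically overnight at 35±2° C. MIC was read visually. MBC came from subculturing clear wells, as ≥99.9% inoculum reduction.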

For data set [2], the system named is A. baumannii. Description: A. baumannii lung infection in mice, cell counts in lungs. The data set is classed as in vivo, C57B1/6 mice. Here is the method: Groups of C57B1/6 mice that have been ear-tagged for identification are used. Freshly-prepared inocula of A. baumannii are prepared from cultures of A. baumannii passaged four times through mice, and cultures are grown with agitation at 37° C. in Nutrient broth to an OD600 value of approximately 0.3 units. Cells are collected by centrifugation at room temperature for 20 mins (5,500 rpm using a GA-10 rotor) and resuspended in 10 ml sterile PBS at room temperature. This wash is repeated once. The cell pellet is then resuspended in 0.5 ml PBS to an approximate concentration of 2.5×10^9 c.f.u./ml. Animals are inoculated intranasally 40 μl inoculum (approximately 1×10^8 c.f.u.) using a sterile 200 μl capacity pipette tip having approximately 3 mm removed from the end. The precise time of inoculation is recorded for each animal. Peptides are administered intravenously e.g., after 3 hr, in 200 μl aliquots of a 200 μM peptide solution in PBS.
At 5.5 hr post-inoculation (taking into account staggered inoculation times), both lung lobes are removed from the animals, homogenised in 0.9 ml PBS and plated on MHB plates at 1×10^−3 dilution, 1×10^−4 dilution and 1×10^−5 dilution in PBS. Following incubation periods sufficient to grow colonies, cells are counted.

Another data set deals with Jurkat cells. Description: Cytotoxicity against Jurkat cells (CellTiter Blue). The data set is classed as cell-based, human. Here is the method:
(§1) The cytotoxicities of selected peptides against human T-lymphocytes, in particular Jurkat cells, was determined by growing 100 uL Jurkat cells in RPMI (approx. 5×10^5 cells/ml density) overnight at 37° C. under 5% CO2 atmosphere, in microtiter plate wells, in the presence and absence of peptides. Control reactions either lacked peptide (negative cytotoxicity control), or contained a buffer to completely lyse Jurkat cells (positive cytotoxicity control). The viabilities of cells were then determined by addition of 20 uL CellTiter Blue dye (Promega) to each well, and incubation of cells for a further 3 hrs at 37° C. Fluorescence values were measured for 1 sec at 540 nm/615 nm, and expressed relative to fluorescence values for negative and positive cytotoxicity control samples. Comparison with a fully lysed control allowed the calculation of a percentage killing for each peptide concentration. The MCC10 value was calculated as the minimum peptide concentration required to induce 10% cytotoxicity.

Data set [3] is described as follows: Cytotoxicity against Jurkat cells (CellTiter Blue). Format: cell-based, human. Conditions: human. As to the method: as §1
The subject of the next data set is human RBC. The data set can be described thus: Hemolysis of RBC. The data set is classed as cell-based. Here is the method: Varying amounts of peptide were incubated with the washed RBC for one hour at room temperature. Intact cells were pelleted by gentle centrifugation, and hemolysis of each sample was determined by absorption measurement at 450 nm. A positive control sample consisted of RBC lysed by the addition of 0.1% Triton, for which hemolysis was also determined by absorption measurement at 450 nm. Percentages of lysed RBC incubated with peptide were then calculated by the ratio of absorbances at 450 nm for the sample relative to the absorbance at 450 nm of the positive control sample. The MHC10 value was calculated as the minimum peptide concentration to induce 10% cell lysis.

Data set [4] relates to A. baumannii ATCC 19606, Acinetobacter spp. ATCC 17903, Acinetobacter spp. ATCC 19004, E. coli BL21, S. aureus, S. typhimurium AroA, P. aeruginosa, P. …. The data set can be described thus: Antibacterial spectrum over the serial dilution panel (Table 6). The data set is classed as cell-based. Conditions: summary of Table 6. A digest of the protocol:
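Growth inhibition in liquid culture: freshly inoculated strains exposed to roughly 5–10 μM peptide, 5-6 h shaking at 37° C. Absorbance at 595 nm measured growth, with 0.1% acetonitrile vehicle as control.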

Data set [5] deals with A. baumannii ATCC Accession No. 19606. Format: cell-based. Conditions: A. baumannii ATCC 19606. As to the method:
(§2) Synthetic peptides were tested for their ability to inhibit bacterial growth in liquid culture. […] 19606, Acinetobacter spp. ATCC 17903, Acinetobacter spp. ATCC 19004, Escherichia coli strain BL21, S. aureus, S. typhimurium strain AroA, P. aeruginosa or P. pneumotropica. After 5-6 hours of shaking at 37° C., growth was measured as absorbance at 595 nm. As a control, cultures were grown in the presence of 0.1% acetonitrile (i.e., the concentration present in 10 μM peptide).

Data set [6] has as its system Acinetobacter spp. ATCC 19004. Format: cell-based. As to the method:
as §2

Data set [7] concerns Acinetobacter spp. ATCC 17903. The data set is classed as cell-based. Here is the method:
as §2

The subject of data set [8] is Escherichia coli strain BL21. Format: cell-based. Conditions: for % inhibition of bacterial growth by peptide: E. coli BL21. As to the method: as §2
The subject of data set [9] is S. typhimurium strain AroA. Format: cell-based. Here is the method: as §2
The subject of a further data set is S. aureus. Format: cell-based. As to the method: as §2
The test system of a further data set is P. aeruginosa. Format: cell-based. As to the method:
as §2

With `CC[C@@H](C)[C@@H](NC(=O)[C@@H](CCCNC(=N)N)NC(=O)[C@@H](C)NC(=O)[C@@H](CC(C)C)NC(=O)[C@@H](CCCNC(=N)N)NC(=O)[C@@H](CCCNC(=N)N)NC(=O)CCCC[C@@H]1SC[C@@H]2NC(=O)N[C@@H]21)C(=O)N[C@H](CCCCN)C(=O)N[C@H](CO)C(=O)N[C@H](CC(C)C)C(=O)N[C@H](CC(C)C)C(=O)N[C@H](CCC(N)=O)C(=O)N[C@H](CCCNC(=N)N)C(=O)N[C@H](CS)C(=O)N[C@@H](C(=O)N[C@H](C)C(=O)N[C@H](Cc1ccccc1)C(=O)N[C@H](Cc1ccccc1)C(=O)N[C@H](CO)C(=O)N[C@H](Cc1c[nH]cn1)C(=O)N[C@H](CC(N)=O)C(=O)N[C@H](Cc1ccc(O)cc1)C(=O)N[C@H](CCCNC(=N)N)C(=O)N[C@@H](C(=O)O)C(C)C)C(C)C` [Ac13r] (Biotin-[dR][dR][dL][dA][dR][dI][dK][dS][dL][dL][dQ][dR][dC][dV][dA][dF][dF][dS][dH][dN][dY][dR][dV]-OH; N-terminus and C-terminus assumed), in the data set with A. baumannii [1], the “MIC (μM) for amidated peptide” value was 1.25 to 2.5 µM and the “MIC (μM) for non-amidated Peptide” value lay in the range of 1.25 to 2.5 µM. Besides, the “trend to reduce A. baumannii infection in the lung” value in the data set with A. baumannii [2] was “strong trend”. Moreover, in the data set on A. baumannii [2] (as E41, Mouse 2), the “Cell counts in lungs post-treatment, Mouse 2” value is 2.6 × 10^5. For the same molecule, in the data set with A. baumannii [2] (as E41, Mouse 3), the “Cell counts in lungs post-treatment, Mouse 3” value is 9.0 × 10^4. Further, the “Cell counts in lungs post-treatment, Mouse 1” value in the data set on A. baumannii [2] (peptide i.v. after intranasal A. baumannii, lungs at 5.5 hr post-inoculation, Mouse 1) is given as 1 × 10^4. In the data set with Jurkat cells, the MCC10 is 30 µM. In data set [3], this molecule registered a cytotoxicity at 12.5 μM of 0%, a cytotoxicity at 25 μM of 3% and a cytotoxicity at 50 μM of 39%. In the data set with human RBC, the MHC10 was roughly 15 µM.

On to `CC(C)C[C@H](NC(=O)CNC(=O)[C@@H]1CCCN1C(=O)[C@H](Cc1c[nH]c2ccccc12)NC(=O)[C@H](CCCCN)NC(=O)[C@H](CCCCN)NC(=O)[C@H](CCCNC(=N)N)NC(=O)[C@H](C)NC(=O)[C@H](CCC(N)=O)NC(=O)[C@@H]1CCCN1C(=O)[C@H](CO)NC(=O)[C@@H](NC(=O)[C@H](CCCCN)NC(=O)[C@H](CC(C)C)NC(=O)[C@H](CCCCN)NC(=O)[C@@H](NC(=O)[C@H](CC(C)C)NC(=O)[C@H](Cc1c[nH]cn1)NC(=O)[C@H](CC(=O)O)NC(=O)CN)C(C)C)[C@@H](C)O)C(=O)NCC(=O)N[C@@H](CC(N)=O)C(=O)N[C@@H](CCC(=O)O)C(=O)O` [Ac99] (H-GDHLVKLKTSPQARKKWPGLGNE-OH; N-terminus and C-terminus assumed), for which the “selectively inhibited growth of Acinetobacter spp. ATCC 19004, and S. aureus” value in data set [4] is given as “selectively inhibited growth”. Besides, the “% inhibition of bacterial growth by peptide” value (from here on “% inhibition”) in data set [5] (12.5 μM peptide) was found to be 9%; in [5] (15 μM peptide), 20%; in data set [5] (17.5 μM peptide) it was 14%; in [5] (20 μM peptide), 27%; in data set [6] (12.5 μM peptide), 0%; in data set [6] (15 μM peptide) it was 1%. The “% inhibition” value in data set [6] (17.5 μM peptide) came to 7%; in [6] (20 μM peptide), 92%; in data set [7] (12.5 μM peptide), 0%; in data set [7] (15 μM peptide) it was 1%; in data set [7] (17.5 μM peptide), 1%; in data set [7] (20 μM peptide), 32%. The “% inhibition” value in data set [8] (12.5 μM peptide) amounted to 16%; in data set [8] (15 μM peptide), 23%; in data set [8] (17.5 μM peptide), 17%; in data set [8] (20 μM peptide), 27%; in [9] (12.5 μM peptide), 0%; in [9] (15 μM peptide), 5%. The “% inhibition” value came out at 0% in data set [9] (17.5 μM peptide); 4% in data set [9] (20 μM peptide); 60% in the data set on S. aureus (12.5 μM peptide); 80% with S. aureus (15 μM peptide); 99% with S. aureus (17.5 μM peptide); 100% in the data set with S. aureus (20 μM peptide). The “% inhibition” value in the data set with P. aeruginosa (12.5 μM peptide) came to 8%; in the data set with P. aeruginosa (15 μM peptide), 21%; with P. aeruginosa (17.5 μM peptide), 0%; in the data set on P. aeruginosa (20 μM peptide) it was 0%.

tachyplesin-1 [reference compound]: the “inhibition of growth of E. coli” value in data set [8] (summary of Table 6) is recorded as “inhibited growth of E. coli significantly”.

Take `CC[C@H](C)[C@H](NC(=O)[C@H](Cc1c[nH]c2ccccc12)NC(=O)[C@H](CCCNC(=N)N)NC(=O)[C@H](CO)NC(=O)[C@H](CCCNC(=N)N)NC(=O)[C@H](CCCNC(=N)N)NC(=O)[C@H](CO)NC(=O)[C@H](CCCNC(=N)N)NC(=O)[C@H](CCCNC(=N)N)NC(=O)[C@H](Cc1ccc(O)cc1)NC(=O)CNC(=O)CCCC[C@@H]1SC[C@@H]2NC(=O)N[C@@H]21)C(=O)N[C@@H](CS)C(=O)N[C@@H](CO)C(=O)N[C@@H](CCSC)C(=O)N[C@@H](C)C(=O)N[C@@H](CCCNC(=N)N)C(=O)N[C@@H](CCCNC(=N)N)C(=O)N[C@@H](CO)C(=O)N[C@@H](CCCNC(=N)N)C(=O)N[C@@H](CCCNC(=N)N)C(=O)N[C@@H](CCCNC(=N)N)C(=O)N[C@@H](CCCNC(=N)N)C(=O)N1CCC[C@H]1C(=O)O` [Ac389] (Biotin-GYRRSRRSRWICSMARRSRRRRP-OH): in the data set on A. baumannii [1], the “MIC (μM) for non-amidated Peptide” value came to 12.5 µM. This molecule yielded an MCC10 in the data set on Jurkat cells of 15 µM. In data set [3], this molecule gave a cytotoxicity at 12.5 μM of 0%, a cytotoxicity at 25 μM of 34% and a cytotoxicity at 50 μM of 95%. The MHC10 in the data set on human RBC is 50 µM.
